Data set [1] has as its system Caco-2 cells. As to the kind of experiment: Extracellular acidification rate and oxygen consumption rate in real time (Seahorse XFe96). The data set is classed as cell-based, human. Particulars: Caco-2, 100 µM; for Effect on max OCR: 24 h (Figures 3C, 4A-D); for Effect on basal mitochondrial OCR / Effect on glycolysis (ECAR) / Effect on glycolysis, cluster in dendrogram: 24 h; for Effect on basal mitochondrial OCR: compared to control (Figures 3B, 4A-D); for Effect on glycolysis (ECAR): compared to control (Figures 3B, 4E-H); for Effect on glycolysis, cluster in dendrogram: clusters of Figure 3C. On the procedure:
We previously described how ortho-carbonyl hydroquinone scaffolds inhibit oxidative phosphorylation in breast cancer cells. Since the reduction in glucose utilization and metabolism in intestinal cells is a promising target for T2DM treatment, the effect of these compounds on mitochondrial respiration and glycolysis in Caco-2 cells was determined. […] The effect of ortho-carbonyl hydroquinone series (100 µM) on five parameters of mitochondrial respiration (basal OCR, max OCR, spare capacity, ATP-linked OCR, and proton leak-driven OCR), and two of glycolysis (glycolytic capacity and glycolysis), is represented in a dendrogram (Figure 3C). […] OCR: compounds 1, 6, 7, and 9. […] No correlations between OCR and ECAR parameters, α-glucosidase activity inhibition, or ORAC were observed (Supplementary Figure S1).
In contrast, compound 10 increases the proton leak-OCR and decreases max OCR (Figure 4A–D).
To analyze the extracellular acidification rate (ECAR), Caco-2 cells (10,000 cells/well) were seeded on XFe96 V3-PS multi-well plates and kept for 24 h at 37 °C in 5% CO2 with a DMEM culture medium supplemented with FBS. After 24 h, the cells were stimulated by compounds at 100 μM for 24 h. Then, the culture medium was replaced with assay media (unbuffered DMEM without red phenol, with 4 mM glutamine and 10 mM glucose, pH = 7.4) 1 h before the assay. Glycolysis was evaluated by the sequential injection of 10 mM glucose, 1 µM oligomycin, and 100 mM 2-deoxy-D-glucose (2-DG), and ECAR was analyzed using specific excitation and emission wavelengths of protons (470/530 nm). To study the mitochondrial function, the sequential injection of 1 μM oligomycin, 250 nM FCCP, 1 μM rotenone, and 1 μM antimycin A was added. The oxygen consumption rate (OCR) measurements were made with the specific excitation and emission wavelengths of the fluorescent probes for oxygen (532/650 nm) using a Seahorse XFe96 Analyzer (Seahorse Agilent, USA), and OCR and ECAR data were normalized by protein content/well, which was determined using a BCA kit. Each experiment was performed at least in triplicate. The OCR/ECAR data analysis and dendrograms were performed using XLSTAT software (version 2023.2.1414, Lumivero, New York, NY, USA).

For data set [2], the target named is α-glucosidase. Put plainly: α-glucosidase inhibitory activity (p-nitrophenyl α-D-glucopyranoside substrate). The data set is classed as biochemical. As to conditions: for pIC50 (α-glucosidase): pIC50 = −log[IC50], Figure 2A; for IC50: pH 6.9, 37 °C, 15 min, mean ± SD of three experiments, read-out: Inhibition of α-Glucosidase Activity IC50.
Experimental: The inhibition of α-glucosidase was determined following a previous method [62] using p-nitrophenyl α-D-glucopyranoside as a substrate. The reaction mixture contained 160 µL of 0.1 M sodium phosphate buffer (pH = 6.9), 5 µL of enzyme (5.46 U/mL), and polyphenolic extract (0.17–1.36 µg/mL). After the pre-incubation of the reaction mixture on ice for 5 min, the enzyme reaction was started by adding 5 µL of 25 mM p-nitrophenyl α-D-glucopyranoside into this mixture. The reaction was incubated for 15 min at 37 °C. Then, 80 µL of 0.2 M sodium carbonate was added. The absorbance was measured at 405 nm in a microplate reader (Biotek ELx808, Agilent, Santa Clara, CA, USA). Enzyme inhibition was calculated using the following equation: % inhibition = (A0 − As)/A0 × 100, where A0 is the absorbance of the control (blank, without extract) and As is the absorbance in presence of the extract. IC50 values denote the µg GAE/mL required to inhibit the enzyme by 50%.
Data set [3] in a line: ORAC assay (oxygen radical absorbance capacity, ORAC-FL). As to conditions: radical scavenging against peroxyl radicals; mean ± SD of three experiments. On the procedure:
The radical-scavenging activities of the hydroquinone series against peroxyl radicals were assessed (ORAC assays). […] Similarly, for the series with the gem-diethyl group on ring B (compounds 6–10), compound 6 presents the highest antioxidant capacity (7.0 + 0.3 mol TE/mol compound). […] The replacement of the gem-dimethyl with the gem-diethyl group also decreases the antioxidant capacity.
The antioxidant activity was determined by ORAC (oxygen radical absorbance capacity) assays. Briefly, the antioxidant capacity for ORAC-FL was estimated by measuring the changes in fluorescence after 120 min of reaction with the radical. Assays were performed using a 96-well microplate in a Synergy H1 hybrid multi-mode microplate reader (Biotek, Winooski, VT, USA), and the results were expressed as µmol Trolox 100 g^−1 DW. Three replicates were accomplished for each analysis.

Structures are written as SMILES.

This is an account of results in publication PMC11313435, “Identification of Antioxidant Methyl Derivatives of Ortho-Carbonyl Hydroquinones That Reduce Caco-2 Cell Energetic Metabolism and Alpha-Glucosidase Activity” (International Journal of Molecular Sciences, 2024).

By IC50 is commonly meant the point on the concentration scale where inhibition reaches its midpoint. By melting point is commonly meant the temperature, or range, at which the solid turns liquid.

In the case of `CC1(C)C=CC(=O)c2c(O)ccc(O)c21` [Compound 1, 5,8-Dihydroxy-4,4-dimethylnaphthalen-1(4H)-one], in data set [1], the “Effect on max OCR” value was “strong inhibitory effect on max. OCR”; the “Effect on basal mitochondrial OCR” value is on record as “reduces the basal mitoOCR”; the “Effect on glycolysis (ECAR)” value is “increases ECAR”; the “Effect on glycolysis, cluster in dendrogram” value (“Effect on glycolysis, cluster” for short) is “glycolysis enhancers”. Moreover, the “pIC50 (α-glucosidase)” value in data set [2] was 3.72.

Regarding `Cc1cc(O)c2c(c1O)C(C)(C)C=CC2=O` [Compound 2, 5,8-Dihydroxy-4,4,6-trimethylnaphthalen-1(4H)-one], in data set [1], the “Effect on max OCR” value is given as “reduced effect on max OCR”; the “Effect on glycolysis (ECAR)” value is “reduces the glycolysis”; the “Effect on glycolysis, cluster” value is on record as “glycolysis inhibitors”. For the same compound, in data set [3], the ORAC was determined as 5.5 ± 0.2 mol TE/mol Compound. Besides, in data set [2], the IC50 was 140 µM and the “pIC50 (α-glucosidase)” value is on record as 3.85.

Regarding `Cc1cc(O)c2c(c1O)C(=O)C=CC2(C)C` [Compound 3, 5,8-Dihydroxy-4,4,7-trimethylnaphthalen-1(4H)-one], the melting point turned out to be 204 °C. In data set [1], the “Effect on max OCR” value was “reduced effect on max OCR”; the “Effect on glycolysis (ECAR)” value is recorded as “reduces the glycolysis”; the “Effect on glycolysis, cluster” value is “glycolysis inhibitors”. For the same compound, the ORAC in data set [3] amounted to 3.9 ± 0.1 mol TE/mol Compound. In data set [2], the half-maximal inhibitory concentration (IC50) is over 500 µM and the “pIC50 (α-glucosidase)” value amounted to 3.26.

As to `Cc1c(C)c(O)c2c(c1O)C(=O)C=CC2(C)C` [Compound 4, 5,8-Dihydroxy-4,4,6,7-tetramethylnaphthalen-1(4H)-one], in data set [1], the “Effect on max OCR” value is listed as “reduced effect on max OCR”; the “Effect on basal mitochondrial OCR” value was “lacking effect on OCR”; the “Effect on glycolysis (ECAR)” value is reported as “increases the glycolysis”; the “Effect on glycolysis, cluster” value was “glycolysis inhibitors”. Also, in data set [3], the ORAC is reported as 1.05 ± 0.03 mol TE/mol Compound. In addition, in data set [2], the concentration for half-maximal inhibition (IC50) was 245 µM and the “pIC50 (α-glucosidase)” value stood at 3.61.

`CCC1(CC)C=CC(=O)c2c(O)cc(C)c(O)c21` [Compound 7, 4,4-Diethyl-5,8-dihydroxy-6-methylnaphthalen-1(4H)-one]: in data set [1], the “Effect on max OCR” value was “strong inhibitory effect on max. OCR”; the “Effect on basal mitochondrial OCR” value is on record as “lacking effect on OCR”; the “Effect on glycolysis (ECAR)” value is given as “increases the glycolysis”; the “Effect on glycolysis, cluster” value was “glycolysis enhancers”. In addition, the ORAC in data set [3] is recorded as 7.2 ± 0.4 mol TE/mol Compound. Further, in data set [2], the half-inhibitory concentration (IC50) came out at 110 µM and the “pIC50 (α-glucosidase)” value was 3.96.

Consider `CCC1(CC)C=CC(=O)c2c(O)c(C)cc(O)c21` [Compound 8, 4,4-Diethyl-5,8-dihydroxy-7-methylnaphthalen-1(4H)-one], for which the melting point was found to be 198.2 °C. Moreover, in data set [1], the “Effect on max OCR” value was “reduced effect on max OCR”; the “Effect on glycolysis (ECAR)” value is recorded as “reduces the glycolysis”; the “Effect on glycolysis, cluster” value is on record as “glycolysis inhibitors”. Besides, in data set [3], the ORAC was found to be 5.9 ± 0.3 mol TE/mol Compound. Further, in data set [2], the IC50 was determined as 60 µM and the “pIC50 (α-glucosidase)” value was 4.20.

`CCC1(CC)C=CC(=O)c2c(O)c(C)c(C)c(O)c21` [Compound 9, 4,4-Diethyl-5,8-dihydroxy-6,7-dimethylnaphthalen-1(4H)-one] returned a melting point of 174.9 to 179.8 °C. In data set [1], the “Effect on max OCR” value is on record as “strong inhibitory effect on max. OCR”; the “Effect on glycolysis (ECAR)” value was “reduces the glycolysis”; the “Effect on glycolysis, cluster” value is “glycolysis enhancers”. For the same compound, the ORAC in data set [3] was 0.83 ± 0.03 mol TE/mol Compound. Besides, in data set [2], the IC50 is over 500 µM and the “pIC50 (α-glucosidase)” value was found to be 3.29.
